Molecules are shown by their SMILES.

Assay in all cases: biochemical
Common to all, as to type: biochemical

In assay [1] the target is T1, 382 unique human kinases (Homo sapiens, UniProt P52564).
T1 construct: purchased Reaction Biology (HotSpot contract assay)
T1 sequence (P52564 1-334): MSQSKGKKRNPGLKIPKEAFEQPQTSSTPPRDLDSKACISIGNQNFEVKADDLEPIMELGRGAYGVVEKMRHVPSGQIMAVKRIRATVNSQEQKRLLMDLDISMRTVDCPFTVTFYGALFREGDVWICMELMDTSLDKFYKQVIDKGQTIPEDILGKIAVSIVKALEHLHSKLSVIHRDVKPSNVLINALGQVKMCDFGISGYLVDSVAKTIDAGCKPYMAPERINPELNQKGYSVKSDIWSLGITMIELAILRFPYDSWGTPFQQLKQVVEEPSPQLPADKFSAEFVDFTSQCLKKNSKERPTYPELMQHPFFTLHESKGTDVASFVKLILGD
The settings on record: MKK6, 10 uM; for remaining activity at 10 µM: read-out: % Enzyme Activity (relative to DMSO controls).

The target in assay [2] is T2, 382 unique human kinases (Homo sapiens, UniProt P00533, L747S).
T2 construct: purchased Reaction Biology (HotSpot contract assay)
The settings on record: kinase EGFR (L747S), compound 10 uM; for remaining activity at 10 µM: read-out: % Enzyme Activity (relative to DMSO controls).

In assay [3] the target is T3, 382 unique human kinases (Homo sapiens, UniProt P07949, R813Q).
T3 construct: purchased Reaction Biology (HotSpot contract assay)
The settings on record: RET (R813Q), 10 uM; for remaining activity at 10 µM: read-out: % Enzyme Activity (relative to DMSO controls).

For assay [4], the target named is T4, 382 unique human kinases (Homo sapiens, UniProt Q56UN5).
T4 construct: purchased Reaction Biology (HotSpot contract assay)
T4 sequence (Q56UN5 1-1328): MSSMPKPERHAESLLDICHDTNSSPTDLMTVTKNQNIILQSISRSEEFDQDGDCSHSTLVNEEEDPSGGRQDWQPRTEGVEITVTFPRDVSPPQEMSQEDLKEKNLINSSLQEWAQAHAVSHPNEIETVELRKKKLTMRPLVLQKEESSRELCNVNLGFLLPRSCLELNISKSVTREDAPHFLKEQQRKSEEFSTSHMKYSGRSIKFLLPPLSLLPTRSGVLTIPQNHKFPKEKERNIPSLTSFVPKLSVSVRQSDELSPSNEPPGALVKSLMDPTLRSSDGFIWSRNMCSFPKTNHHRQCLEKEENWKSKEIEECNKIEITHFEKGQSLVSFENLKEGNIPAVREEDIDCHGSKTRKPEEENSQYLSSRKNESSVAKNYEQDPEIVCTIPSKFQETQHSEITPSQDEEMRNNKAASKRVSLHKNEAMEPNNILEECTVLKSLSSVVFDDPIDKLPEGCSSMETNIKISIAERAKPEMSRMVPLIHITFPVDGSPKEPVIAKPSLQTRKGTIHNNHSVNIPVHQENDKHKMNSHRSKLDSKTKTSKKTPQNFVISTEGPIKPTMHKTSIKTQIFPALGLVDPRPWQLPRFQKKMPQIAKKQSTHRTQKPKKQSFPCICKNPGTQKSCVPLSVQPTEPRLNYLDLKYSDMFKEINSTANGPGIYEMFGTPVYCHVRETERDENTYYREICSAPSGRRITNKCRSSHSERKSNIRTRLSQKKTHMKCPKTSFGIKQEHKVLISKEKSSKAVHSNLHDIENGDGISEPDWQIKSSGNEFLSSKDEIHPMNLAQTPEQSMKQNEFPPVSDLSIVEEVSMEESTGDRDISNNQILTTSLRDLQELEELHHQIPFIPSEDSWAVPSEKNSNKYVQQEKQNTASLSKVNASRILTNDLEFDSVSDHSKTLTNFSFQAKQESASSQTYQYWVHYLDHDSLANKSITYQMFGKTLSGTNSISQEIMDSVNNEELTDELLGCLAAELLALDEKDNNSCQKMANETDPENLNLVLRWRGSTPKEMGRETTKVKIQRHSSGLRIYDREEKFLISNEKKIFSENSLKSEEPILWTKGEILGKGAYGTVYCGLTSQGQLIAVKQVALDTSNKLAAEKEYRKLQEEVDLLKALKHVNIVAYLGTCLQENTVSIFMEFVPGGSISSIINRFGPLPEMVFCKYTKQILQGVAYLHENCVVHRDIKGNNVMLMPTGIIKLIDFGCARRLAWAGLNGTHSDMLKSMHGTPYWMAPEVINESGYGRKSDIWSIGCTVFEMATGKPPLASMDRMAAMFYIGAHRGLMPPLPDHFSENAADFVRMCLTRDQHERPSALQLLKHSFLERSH
The settings on record: kinase YSK4/MAP3K19, compound 10 uM; for remaining activity at 10 µM: read-out: % Enzyme Activity (relative to DMSO controls).

For assay [5], the target named is T5, 382 unique human kinases (Homo sapiens, UniProt Q5S007, I2020T).
T5 construct: purchased Reaction Biology (HotSpot contract assay)
The settings on record: LRRK2 (I2020T), [ATP] 10 µM, compound 10 uM; for remaining activity at 10 µM: read-out: % Enzyme Activity (relative to DMSO controls).

In assay [6] the target is T6, 382 unique human kinases (Homo sapiens, UniProt Q6VAB6).
T6 sequence (Q6VAB6 1-950): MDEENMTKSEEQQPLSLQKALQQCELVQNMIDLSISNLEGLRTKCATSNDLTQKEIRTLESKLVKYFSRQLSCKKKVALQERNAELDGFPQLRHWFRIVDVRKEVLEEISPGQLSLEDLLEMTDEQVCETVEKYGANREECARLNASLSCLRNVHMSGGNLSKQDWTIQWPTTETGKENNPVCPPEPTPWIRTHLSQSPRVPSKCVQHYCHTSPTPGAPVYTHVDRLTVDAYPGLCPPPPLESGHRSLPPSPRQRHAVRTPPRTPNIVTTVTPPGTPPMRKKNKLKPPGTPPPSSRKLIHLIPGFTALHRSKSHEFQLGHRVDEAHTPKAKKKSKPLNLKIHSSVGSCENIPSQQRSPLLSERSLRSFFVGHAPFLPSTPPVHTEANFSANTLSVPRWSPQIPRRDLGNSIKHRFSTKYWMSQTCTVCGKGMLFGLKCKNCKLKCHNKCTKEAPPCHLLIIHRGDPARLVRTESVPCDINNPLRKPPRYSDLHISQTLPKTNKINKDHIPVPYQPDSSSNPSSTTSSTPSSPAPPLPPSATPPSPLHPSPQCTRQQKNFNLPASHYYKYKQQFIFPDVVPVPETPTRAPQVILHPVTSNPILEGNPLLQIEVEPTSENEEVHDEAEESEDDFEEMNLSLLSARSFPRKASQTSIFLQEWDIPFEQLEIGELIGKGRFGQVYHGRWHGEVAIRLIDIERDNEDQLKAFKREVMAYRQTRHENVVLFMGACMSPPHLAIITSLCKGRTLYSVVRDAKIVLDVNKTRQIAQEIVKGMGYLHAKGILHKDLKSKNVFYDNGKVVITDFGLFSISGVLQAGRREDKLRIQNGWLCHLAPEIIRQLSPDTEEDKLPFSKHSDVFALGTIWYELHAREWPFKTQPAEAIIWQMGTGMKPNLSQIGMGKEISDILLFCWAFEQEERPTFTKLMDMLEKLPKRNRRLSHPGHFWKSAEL
The settings on record: KSR2, 10 uM; for remaining activity at 10 µM: read-out: % Enzyme Activity (relative to DMSO controls).

T5 sequence (Q5S007 whole entry I2020T): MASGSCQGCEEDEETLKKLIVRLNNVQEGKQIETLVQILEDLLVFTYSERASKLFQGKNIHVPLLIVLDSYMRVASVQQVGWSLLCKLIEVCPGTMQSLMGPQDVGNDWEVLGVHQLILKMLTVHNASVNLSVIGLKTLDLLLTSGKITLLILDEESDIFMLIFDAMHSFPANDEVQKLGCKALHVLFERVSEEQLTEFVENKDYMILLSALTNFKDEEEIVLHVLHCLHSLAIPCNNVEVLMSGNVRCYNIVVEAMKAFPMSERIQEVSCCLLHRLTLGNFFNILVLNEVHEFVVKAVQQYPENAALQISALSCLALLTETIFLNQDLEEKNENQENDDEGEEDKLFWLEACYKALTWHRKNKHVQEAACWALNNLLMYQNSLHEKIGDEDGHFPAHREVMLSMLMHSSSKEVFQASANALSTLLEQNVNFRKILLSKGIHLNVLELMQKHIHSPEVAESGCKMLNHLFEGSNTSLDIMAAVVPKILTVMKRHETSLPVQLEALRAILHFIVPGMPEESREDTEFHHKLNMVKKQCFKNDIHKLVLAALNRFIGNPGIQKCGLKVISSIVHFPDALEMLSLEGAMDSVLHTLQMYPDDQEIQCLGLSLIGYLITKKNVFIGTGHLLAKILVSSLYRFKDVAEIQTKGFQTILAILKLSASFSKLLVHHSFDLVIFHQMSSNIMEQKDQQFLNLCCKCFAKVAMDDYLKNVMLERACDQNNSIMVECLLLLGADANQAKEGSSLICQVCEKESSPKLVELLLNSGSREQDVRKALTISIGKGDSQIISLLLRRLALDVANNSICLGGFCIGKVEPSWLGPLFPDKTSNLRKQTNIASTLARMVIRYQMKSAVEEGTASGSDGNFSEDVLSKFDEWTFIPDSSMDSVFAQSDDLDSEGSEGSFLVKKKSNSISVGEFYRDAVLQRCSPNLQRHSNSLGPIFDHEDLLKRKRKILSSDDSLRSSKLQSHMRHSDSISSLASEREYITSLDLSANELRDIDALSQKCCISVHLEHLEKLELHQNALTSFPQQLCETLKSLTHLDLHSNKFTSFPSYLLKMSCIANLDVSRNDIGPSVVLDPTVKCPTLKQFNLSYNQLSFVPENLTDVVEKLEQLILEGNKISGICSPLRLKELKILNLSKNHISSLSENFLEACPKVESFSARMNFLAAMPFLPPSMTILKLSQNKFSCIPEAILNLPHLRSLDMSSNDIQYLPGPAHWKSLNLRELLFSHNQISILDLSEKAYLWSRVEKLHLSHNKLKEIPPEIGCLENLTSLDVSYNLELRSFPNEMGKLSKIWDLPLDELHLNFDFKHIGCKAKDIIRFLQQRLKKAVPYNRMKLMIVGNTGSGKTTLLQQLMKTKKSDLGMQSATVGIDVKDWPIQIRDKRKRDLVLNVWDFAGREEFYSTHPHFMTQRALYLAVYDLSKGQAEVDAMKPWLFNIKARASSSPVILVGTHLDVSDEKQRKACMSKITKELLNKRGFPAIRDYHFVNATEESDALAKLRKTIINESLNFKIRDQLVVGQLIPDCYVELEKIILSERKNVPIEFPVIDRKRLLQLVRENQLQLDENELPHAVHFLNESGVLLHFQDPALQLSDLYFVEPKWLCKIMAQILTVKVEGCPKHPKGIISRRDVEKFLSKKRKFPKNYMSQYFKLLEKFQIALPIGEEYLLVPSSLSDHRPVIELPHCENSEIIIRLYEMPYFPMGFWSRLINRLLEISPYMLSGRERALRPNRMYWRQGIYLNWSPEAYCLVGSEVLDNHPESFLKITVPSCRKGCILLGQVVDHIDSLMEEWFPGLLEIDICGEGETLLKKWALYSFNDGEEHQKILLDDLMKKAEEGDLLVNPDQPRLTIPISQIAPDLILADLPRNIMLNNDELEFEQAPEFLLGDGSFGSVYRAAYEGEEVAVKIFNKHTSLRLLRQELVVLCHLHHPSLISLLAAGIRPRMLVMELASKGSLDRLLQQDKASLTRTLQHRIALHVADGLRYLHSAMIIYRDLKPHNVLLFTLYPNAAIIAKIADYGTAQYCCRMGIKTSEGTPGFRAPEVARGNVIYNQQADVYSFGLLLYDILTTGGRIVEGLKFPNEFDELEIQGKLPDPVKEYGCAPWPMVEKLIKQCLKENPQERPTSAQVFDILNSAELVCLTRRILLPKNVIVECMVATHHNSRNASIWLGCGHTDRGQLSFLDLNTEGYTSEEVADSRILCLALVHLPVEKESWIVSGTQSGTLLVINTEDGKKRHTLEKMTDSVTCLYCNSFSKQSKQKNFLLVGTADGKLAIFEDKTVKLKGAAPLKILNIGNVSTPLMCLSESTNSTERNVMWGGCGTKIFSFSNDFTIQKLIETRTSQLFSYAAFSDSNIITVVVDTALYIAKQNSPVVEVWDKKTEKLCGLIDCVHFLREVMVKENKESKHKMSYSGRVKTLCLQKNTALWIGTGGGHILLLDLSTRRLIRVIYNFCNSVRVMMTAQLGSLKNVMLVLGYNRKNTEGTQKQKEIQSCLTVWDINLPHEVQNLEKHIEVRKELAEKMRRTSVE
T3 sequence (P07949 29-1114 R813Q): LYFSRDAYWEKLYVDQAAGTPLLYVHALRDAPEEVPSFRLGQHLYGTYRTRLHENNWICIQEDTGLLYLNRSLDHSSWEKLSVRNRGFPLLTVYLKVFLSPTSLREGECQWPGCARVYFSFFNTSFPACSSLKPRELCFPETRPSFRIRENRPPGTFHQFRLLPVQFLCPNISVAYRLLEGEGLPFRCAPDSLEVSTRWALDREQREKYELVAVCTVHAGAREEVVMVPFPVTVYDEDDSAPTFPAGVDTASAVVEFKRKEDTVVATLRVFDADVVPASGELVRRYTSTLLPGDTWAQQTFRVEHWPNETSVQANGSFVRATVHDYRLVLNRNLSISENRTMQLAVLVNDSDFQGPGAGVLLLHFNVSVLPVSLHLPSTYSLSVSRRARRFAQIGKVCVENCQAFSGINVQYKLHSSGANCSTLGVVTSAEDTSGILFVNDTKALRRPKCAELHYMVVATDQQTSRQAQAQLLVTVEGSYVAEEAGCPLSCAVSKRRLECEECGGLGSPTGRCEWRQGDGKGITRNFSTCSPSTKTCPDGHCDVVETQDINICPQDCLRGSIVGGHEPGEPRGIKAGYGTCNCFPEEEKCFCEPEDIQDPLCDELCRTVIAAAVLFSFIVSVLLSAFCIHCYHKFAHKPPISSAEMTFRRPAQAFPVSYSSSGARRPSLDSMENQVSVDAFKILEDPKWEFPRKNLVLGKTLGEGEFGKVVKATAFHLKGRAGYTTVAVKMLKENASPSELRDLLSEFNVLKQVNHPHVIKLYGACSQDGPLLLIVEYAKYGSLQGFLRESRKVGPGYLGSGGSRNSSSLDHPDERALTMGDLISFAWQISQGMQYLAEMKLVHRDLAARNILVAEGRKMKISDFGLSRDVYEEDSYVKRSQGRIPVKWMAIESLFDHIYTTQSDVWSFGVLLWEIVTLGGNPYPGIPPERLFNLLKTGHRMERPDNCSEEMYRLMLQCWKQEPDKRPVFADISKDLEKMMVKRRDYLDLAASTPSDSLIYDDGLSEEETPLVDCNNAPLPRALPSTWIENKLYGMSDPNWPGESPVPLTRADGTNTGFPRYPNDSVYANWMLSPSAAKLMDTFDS

Regarding `CC(C)c1cc(-c2n[nH]c(=O)n2-c2ccc3c(ccn3C)c2)c(O)cc1O` [Ganetespib (STA9090)], the remaining activity at 10 µM at 382 unique human kinases [1] stood at 72.9%; on 382 unique human kinases [2], 88%; on 382 unique human kinases [3], 78%; on 382 unique human kinases [4] it was 85.8%.
Turning to `CC(C)c1cc(-c2n[nH]c(=O)n2-c2ccc3c(ccn3C)c2)c(O)cc1O` [Ganetespib], the values for the remaining activity at 10 µM on 382 unique human kinases [5] and at 382 unique human kinases [6] were 39% and 94.1%, respectively.
On to `CCNC(=O)c1noc(-c2cc(C(C)C)c(O)cc2O)c1-c1ccc(CN2CCOCC2)cc1` [Luminespib (AUY-922)], for which the “% Enzyme Activity (relative to DMSO controls)” value at 382 unique human kinases [1] amounted to 98.81%; on 382 unique human kinases [2], 107.24%; on 382 unique human kinases [3], 103.53%; on 382 unique human kinases [4], 85.23%. The remaining activity at 10 µM on 382 unique human kinases [1] turned out to be 100%; on 382 unique human kinases [2], 108%; on 382 unique human kinases [3], 105%; on 382 unique human kinases [4] it was 88.7%.
`CCNC(=O)c1noc(-c2cc(C(C)C)c(O)cc2O)c1-c1ccc(CN2CCOCC2)cc1` [Luminespib]: at 382 unique human kinases [5], the “% Enzyme Activity (relative to DMSO controls)” value is recorded as 86.48% and the remaining activity at 10 µM turned out to be 86.5%. Besides, on 382 unique human kinases [6], the “% Enzyme Activity (relative to DMSO controls)” value stood at 96.02% and the remaining activity at 10 µM is 96.3%.

The record behind these values is publication PMC8550792, “Evolution of kinase polypharmacology across HSP90 drug discovery” (Cell Chemical Biology, 2021).
